SMILES strings stand for the structures. pIC50: −log10 of the molar value.

The assay concerns the target T1, Glucocorticoid Receptor (GR) (Homo sapiens, UniProt P04150).
T1 construct: purchased Invitrogen P2893
T1 sequence (P04150 1-777): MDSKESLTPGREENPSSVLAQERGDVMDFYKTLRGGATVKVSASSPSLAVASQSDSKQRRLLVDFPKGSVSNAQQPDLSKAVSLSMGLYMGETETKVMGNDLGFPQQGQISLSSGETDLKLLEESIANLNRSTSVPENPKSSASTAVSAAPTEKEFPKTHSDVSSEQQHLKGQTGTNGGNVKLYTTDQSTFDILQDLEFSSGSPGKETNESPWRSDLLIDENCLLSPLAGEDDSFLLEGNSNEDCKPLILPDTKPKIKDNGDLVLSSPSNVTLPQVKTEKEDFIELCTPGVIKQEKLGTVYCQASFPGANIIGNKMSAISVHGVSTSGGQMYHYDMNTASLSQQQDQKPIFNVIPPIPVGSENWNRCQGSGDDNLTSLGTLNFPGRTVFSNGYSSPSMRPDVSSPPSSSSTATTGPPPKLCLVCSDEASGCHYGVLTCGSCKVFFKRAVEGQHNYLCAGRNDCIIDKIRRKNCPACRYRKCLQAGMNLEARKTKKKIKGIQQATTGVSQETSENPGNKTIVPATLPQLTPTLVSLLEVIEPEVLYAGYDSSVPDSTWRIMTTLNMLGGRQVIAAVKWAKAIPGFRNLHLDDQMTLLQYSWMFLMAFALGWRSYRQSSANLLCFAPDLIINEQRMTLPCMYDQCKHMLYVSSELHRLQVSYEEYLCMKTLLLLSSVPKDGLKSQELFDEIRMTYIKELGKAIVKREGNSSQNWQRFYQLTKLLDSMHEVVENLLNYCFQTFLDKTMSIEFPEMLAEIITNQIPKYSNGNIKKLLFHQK
The assay is described as follows: GR Fluorescence Polarization Assay (PolarScreen Glucocorticoid Receptor Competitor Assay, Red). The settings on record: IC50 class ranges, read-out: GR binding. As for the experimental part:
GR Fluorescence Polarization Assay
Fluorescence polarization assays were carried out using the PolarScreen™ Glucocorticoid Receptor Competitor Assay, Red from Invitrogen (P2893). The assay buffer was prepared according to the manufacturer's protocol and used to dilute the fluorescent glucocorticoid and GR. Compounds were prepared and serial diluted 1:4 in DMSO. Compound, fluorescent glucocorticoid and GR were added in a final volume of 20 μL and incubated overnight at 4° C. Fluorescent polarization was measured on the PerkinElmer Envision®.
For orientation: Fluorescence polarisation rises when a labelled molecule tumbles more slowly, as on binding a larger partner.
Turning to `Cc1nn(C)c2c1C(c1ccccn1)SCCN2` (stereo not shown) [D.96], the pIC50 was below 5.00.

Consider `Cc1ncccc1NC(=O)c1ccc(C2SCCNc3c2c(-c2ccccn2)nn3C)c(Cl)c1` (stereo not shown), for which the pIC50 is above 7.00.

Take `CCn1nc(-c2ccccn2)c2c1N[C@@H](C)CS[C@@H]2c1ccc(CCCO)cc1C` (single isomer, unassigned) [M.33, 3-(4-(1-ethyl-7-methyl-3-(pyridin-2-yl)-4,6,7,8-tetrahydro-1H-pyrazolo[3,4-e][1,4]thiazepin-4-yl)-3-methylphenyl)propan-1-ol]: the pIC50 is 6.00 to 7.00.

In the case of `Cc1cc(C(=O)Nc2cccnc2C)ccc1C1SCC(CO)Nc2c1c(-c1ccccn1)nn2C` (single isomer, unassigned), the pIC50 was 5.00 to 6.00.

As to `Cn1nc(-c2ccc(C(N)=O)cn2)c2c1NCCSC2c1ccc(Cl)cc1Cl` (stereo not shown) [I.5], the pIC50 was 5.00 to 6.00.

Regarding `Cc1nn(C)c2c1C(c1cc[nH]n1)SCCN2` (stereo not shown) [D.102], the pIC50 is below 5.00.

In the case of `Cc1ccc(C(=O)Nc2cccnc2C)cc1C1SC(C)(C)CNc2c1c(C1CC1)nn2C` (stereo not shown) [H.2], the pIC50 is below 5.00.

For `Cn1nc(-c2ccccn2)c2c1N(CC(N)=O)CCSC2c1ccc(Cl)cc1Cl` (stereo not shown), the pIC50 is 5.00 to 6.00.

In the case of `CCn1nc(-c2ccccn2)c2c1N[C@H](C)CS[C@@H]2c1ccc(C(N)=O)cc1C` (single isomer, unassigned) [M.47, 4-(1-ethyl-7-methyl-3-(pyridin-2-yl)-4,6,7,8-tetrahydro-1H-pyrazolo[3,4-e][1,4]thiazepin-4-yl)-3-methylbenzamide], the pIC50 is 6.00 to 7.00.

Take `Cn1nc(-c2ccccn2)c2c1NCCSC2c1ccc(-c2cncnc2)cc1Cl` (stereo not shown) [U.2]: the pIC50 was 5.00 to 6.00.

Consider `Cc1ncccc1NC(=O)c1ccc([C@H]2SC[C@@H](C)Nc3c2c(-c2ccccn2)nn3C)c(C#N)c1` (single isomer, unassigned) [M.19, 3-cyano-4-(1,7-dimethyl-3-(pyridin-2-yl)-4,6,7,8-tetrahydro-1H-pyrazolo[3,4-e][1,4]thiazepin-4-yl)-N-(2-methylpyridin-3-yl)benzamide], for which the pIC50 is 5.00 to 6.00.

On to `CCn1nc(-c2ccccn2)c2c1N[C@@H](C)CS[C@@H]2c1ccc(C(N)=O)cc1C` (single isomer, unassigned) [M.45, 4-(1-ethyl-7-methyl-3-(pyridin-2-yl)-4,6,7,8-tetrahydro-1H-pyrazolo[3,4-e][1,4]thiazepin-4-yl)-3-methylbenzamide], for which the pIC50 was 5.00 to 6.00.

`Cc1cc(CCCO)ccc1[C@H]1SC[C@H](C)Nc2c1c(-c1ccccn1)nn2C` (single isomer, unassigned) [M.49, 3-(4-(1,7-dimethyl-3-(pyridin-2-yl)-4,6,7,8-tetrahydro-1H-pyrazolo[3,4-e][1,4]thiazepin-4-yl)-3-methylphenyl)propan-1-ol]: the pIC50 is 5.00 to 6.00.

`Cn1nc(-c2ccccn2)c2c1NCCSC2c1ccc(-c2cnccc2C#N)cc1Cl` (stereo not shown) [U.10]: the pIC50 is 6.00 to 7.00.

Consider `CCn1nc(-c2ccccn2)c2c1NC(=O)CCC2c1ccc(Br)cc1C` (stereo not shown) [AA.3], for which the pIC50 was above 7.00.

Turning to `Cn1nc(-c2ccccn2)c2c1NCCSC2c1ccc(-c2cnc3nccnc3c2)cc1Cl` (stereo not shown) [U.11], the pIC50 was 5.00 to 6.00.

For `Cc1cc(Cl)ccc1C1SCC(C)Nc2c1c(-c1ccccn1)nn2C` (single isomer, unassigned), the pIC50 was above 7.00.

On to `Cc1ccc(Oc2ccc(C3SCCNc4c3c(C)nn4C)cc2)cc1` (stereo not shown) [D.75], for which the pIC50 is 5.00 to 6.00.

Regarding `Cn1nc(-c2ccccn2)c2c1N(CC(=O)O)CCSC2c1ccc(Cl)cc1Cl` (stereo not shown), the pIC50 was 5.00 to 6.00.

For `Cn1nc(-c2ccccn2)c2c1NCCSC2c1ccc(-c2cnn(CCN3CCOCC3)c2)cc1Cl` (stereo not shown) [U.5], the pIC50 was 5.00 to 6.00.

`Cn1nc(-c2ccc(Cl)c(Cl)c2)c2c1NCCSC2c1ccc(Cl)cc1Cl` (stereo not shown) [D.89]: the pIC50 is 6.00 to 7.00.

Consider `CCn1nc(-c2ccccn2)c2c1N[C@@H](C)CS[C@@H]2c1ccc(C#CCO)cc1C` (single isomer, unassigned) [M.25, 3-(4-(1-ethyl-7-methyl-3-(pyridin-2-yl)-4,6,7,8-tetrahydro-1H-pyrazolo[3,4-e][1,4]thiazepin-4-yl)-3-methylphenyl)prop-2-yn-1-ol], for which the pIC50 was 5.00 to 6.00.

Turning to `COc1cccc(C2SCCNc3c2c(C)nn3C)c1` (stereo not shown) [D.81], the pIC50 was 5.00 to 6.00.

Take `Cc1cc(C(=O)Nc2cccnc2C)ccc1C1CCC(=O)Nc2c1c(C)nn2C` (stereo not shown) [O.1, 4-(1,3-Dimethyl-7-oxo-1,4,5,6,7,8-hexahydropyrazolo[3,4-b]azepin-4-yl)-3-methyl-N-(2-methylpyridin-3-yl)benzamide]: the pIC50 is 5.00 to 6.00.

In the case of `Cn1nc(-c2ccccn2)c2c1NCCSC2c1ccc(-c2cncc(C(N)=O)c2)cc1Cl` (stereo not shown) [U.7], the pIC50 is 5.00 to 6.00.

Take `Cc1ncccc1NC(=O)c1ccc([C@H]2SC[C@H](C)Nc3c2c(-c2ccccn2)nn3C)c(C#N)c1` (single isomer, unassigned) [M.18, 3-cyano-4-(1,7-dimethyl-3-(pyridin-2-yl)-4,6,7,8-tetrahydro-1H-pyrazolo[3,4-e][1,4]thiazepin-4-yl)-N-(2-methylpyridin-3-yl)benzamide]: the pIC50 is 5.00 to 6.00.

On to `Cn1nc(-c2ccc(F)cc2F)c2c1NCCSC2c1ccc(Cl)cc1Cl` (stereo not shown) [D.93], for which the pIC50 was 6.00 to 7.00.

Take `CCn1nc(-c2ccccn2)c2c1NCCSC2c1ccc(C(=O)Nc2nnn[nH]2)cc1C` (stereo not shown) [S.6]: the pIC50 is 6.00 to 7.00.

Turning to `Cc1cc(C#CCO)ccc1[C@H]1SC[C@@H](C)Nc2c1c(-c1ccccn1)nn2C` (single isomer, unassigned) [M.69, 3-(4-(1,7-dimethyl-3-(pyridin-2-yl)-4,6,7,8-tetrahydro-1H-pyrazolo[3,4-e][1,4]thiazepin-4-yl)-3-methylphenyl)prop-2-yn-1-ol], the pIC50 is 6.00 to 7.00.

For `Cn1nc(-c2ccccn2)c2c1NCCSC2c1ccc(-c2ccnnc2)cc1Cl` (stereo not shown) [U.3], the pIC50 was 5.00 to 6.00.

For the molecule `COC(=O)c1ccc(C2SC(C)(C)CNc3c2c(C)nn3C)c(C)c1` (stereo not shown) [E.4, methyl 3-methyl-4-(1,3,6,6-tetramethyl-7,8-dihydro-4H-pyrazolo[3,4-e][1,4]thiazepin-4-yl)benzoate], the pIC50 is 6.00 to 7.00.

As for `COC(=O)c1ccc(-c2nn(C)c3c2C(c2ccc(Cl)cc2Cl)SCCN3)nc1` (stereo not shown) [E.6, methyl 6-[4-(2,4-dichlorophenyl)-1-methyl-4,6,7,8-tetrahydropyrazolo[3,4-e][1,4]thiazepin-3-yl]pyridine-3-carboxylate], the pIC50 was 5.00 to 6.00.

As to `Cc1cccc(-c2nn(C)c3c2C(c2ccc(Cl)cc2C)SCCN3)n1` (stereo not shown), the pIC50 was 5.00 to 6.00.

Take `CNC(=O)c1cncc(-c2ccc(C3SCCNc4c3c(-c3ccccn3)nn4C)c(Cl)c2)c1` (stereo not shown) [U.8]: the pIC50 was 5.00 to 6.00.

Turning to `Cn1nc(-c2cccnc2)c2c1NCCSC2c1ccc(Cl)cc1Cl` (stereo not shown) [D.86], the pIC50 was 5.00 to 6.00.

In the case of `Cc1cc(CCC(C)(C)O)ccc1[C@H]1SC[C@H](C)Nc2c1c(-c1ccccn1)nn2C` (single isomer, unassigned) [M.41, 4-(4-(1,7-dimethyl-3-(pyridin-2-yl)-4,6,7,8-tetrahydro-1H-pyrazolo[3,4-e][1,4]thiazepin-4-yl)-3-methylphenyl)-2-methylbutan-2-ol], the pIC50 was 6.00 to 7.00.

As for `CCn1nc(-c2ccccn2)c2c1NCCSC2c1ccc(C(=O)Nc2cccnc2C)cc1C` (single isomer, unassigned) [M.61, 4-(1-ethyl-3-(pyridin-2-yl)-4,6,7,8-tetrahydro-1H-pyrazolo[3,4-e][1,4]thiazepin-4-yl)-3-methyl-N-(2-methylpyridin-3-yl)benzamide], the pIC50 was 6.00 to 7.00.

Take `Cc1cc(Br)ccc1C1CCC(=O)Nc2c1c(C)nn2C` (stereo not shown) [AA.2]: the pIC50 is 5.00 to 6.00.

`Cc1cc(Cl)ccc1C1SCCNc2c1c(-c1ccccn1)nn2C` (single isomer, unassigned): the pIC50 was above 7.00.

In the case of `Cc1ncccc1C(=O)N1CCC(C2SCCNc3c2c(-c2ccccn2)nn3C)CC1` (stereo not shown), the pIC50 is below 5.00.

Take `CCn1nc(-c2ccccn2)c2c1N[C@@H](C)CS[C@@H]2c1ccc(CCC(C)(C)O)cc1C` (single isomer, unassigned) [M.37, 4-(4-(1-ethyl-7-methyl-3-(pyridin-2-yl)-4,6,7,8-tetrahydro-1H-pyrazolo[3,4-e][1,4]thiazepin-4-yl)-3-methylphenyl)-2-methylbutan-2-ol]: the pIC50 is 6.00 to 7.00.

On to `COc1ccccc1C1SCCNc2c1c(C)nn2C` (stereo not shown) [D.98], for which the pIC50 was below 5.00.

On to `CCn1nc(-c2ccccn2)c2c1N[C@H](C)CS[C@@H]2c1ccc(CCCO)cc1C` (single isomer, unassigned) [M.34, 3-(4-(1-ethyl-7-methyl-3-(pyridin-2-yl)-4,6,7,8-tetrahydro-1H-pyrazolo[3,4-e][1,4]thiazepin-4-yl)-3-methylphenyl)propan-1-ol], for which the pIC50 was 6.00 to 7.00.

Source of the values: US9150592B2, “Heterocyclic nuclear hormone receptor modulators” (AbbVie Inc., priority 2012, dated 2015).
